In PMC5126700 (Scientific Reports, 2016):

Assays:
[1] = system: ERp57; details: cited from earlier work
[2] = target: T1, ERp57 (Homo sapiens, UniProt P30101); test: Isothermal Titration Calorimetry of ERp57 with silibinin; format: binding; details: Figure 5b, ERp57 5 μM, silibinin 50 μM
T1 construct: we performed the isothermal titration calorimetry of the whole protein and its two mutants; made in house; host or cells: E. coli BL21 (pET21)
T1 sequence (P30101 25-505): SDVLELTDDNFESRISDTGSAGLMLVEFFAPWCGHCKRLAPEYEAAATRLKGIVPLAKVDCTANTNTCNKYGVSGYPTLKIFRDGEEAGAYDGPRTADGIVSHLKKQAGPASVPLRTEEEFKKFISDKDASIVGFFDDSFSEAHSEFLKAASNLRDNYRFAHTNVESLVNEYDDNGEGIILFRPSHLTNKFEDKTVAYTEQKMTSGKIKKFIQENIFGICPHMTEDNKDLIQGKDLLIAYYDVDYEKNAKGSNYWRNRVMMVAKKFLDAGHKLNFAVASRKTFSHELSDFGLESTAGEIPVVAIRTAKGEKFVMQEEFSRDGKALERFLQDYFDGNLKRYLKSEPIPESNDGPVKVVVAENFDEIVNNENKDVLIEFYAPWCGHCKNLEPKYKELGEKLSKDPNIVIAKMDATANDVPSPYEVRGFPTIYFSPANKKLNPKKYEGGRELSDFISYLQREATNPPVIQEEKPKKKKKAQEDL
Procedure: Both the protein and the ligands were in the same buffer (see Materials and Methods). […] (Lower panel) Integrated heats of reaction plotted against the molar ratio of total ligand concentration to total protein concentration. […] The integrated heat of reaction is plotted against the molar ratio of total ligand concentration to total protein concentration.
ITC experiments were performed at 25 °C using a MicroCal ITC200 microcalorimeter (MicroCal Inc., Northampton, MA, USA). […] Samples were centrifuged before the experiments to eliminate possible aggregates. Protein and ligand solutions were degassed before use. Titrations were performed at 25 °C. The protein solution was placed in the sample cell, and each ligand solution was loaded into the syringe injector. The titrations involved 19 injections of 2 μL at 180 s intervals. The syringe stirring speed was set at 1,000 rpm. The reaction was very fast, as shown by the immediate appearance of an endothermic sharp peak following the addition of ligand to the protein and its deletion mutants solution in the microcalorimetric titration experiment. Reference titrations of ligand into buffer were used to correct for heats of dilution. […] The values of ΔH were measured for each titration, and fitting the binding isotherms with a one-site binding model yielded the values of the association constant (Ka). […]

## COc1cc(C2Oc3cc([C@H]4Oc5cc(O)cc(O)c5C(=O)[C@@H]4O)ccc3OC2CO)ccc1O (stereo partly drawn) [silibinin]
[1]
  affinity for ERp57 compared to calcitriol: at least two orders of magnitude lower
[2]
  n (best fit): 0.776 (±0.0183) sites/mole
[2]; read-out: Ka (best fit) (converted)
  Kd: 483 nM
